Laboratory results taken from patent US20100266694A1, “Chitosan/Carbon Nanotube Composite Scaffolds for Drug Delivery” (priority 2009, published 2010).

Key:
[1] = test system: Pseudomonas aeruginosa; assay: Turbidity test of amikacin eluates for bactericidal activity; type: cell-based; conditions: amikacin eluates from constructs against Pseudomonas aeruginosa
Method: (§1) Eluates taken from constructs of these different types were tested for bactericidal activity in turbidity tests against appropriate strains of bacteria: amikacin eluates against Pseudomonas aeruginosa and vancomycin eluates against Staphylococcus aureus. Eluates were added to trypticase soy broth in a 1:10 dilution. Broth was then inoculated with bacteria and then incubated overnight at 37° C. Absorbance of these solutions (turbidity) was used as an indicator of bacterial growth. Percent inhibition of bacterial growth is calculated from these measurements.

[2] = test system: Staphylococcus aureus; assay: Turbidity test of vancomycin eluates for bactericidal activity; type: cell-based; conditions: vancomycin eluates from constructs against Staphylococcus aureus
Method: as §1

SMILES | time up to which elution is inhibitory [1] | time up to which elution is inhibitory [2]
NCC[C@H](O)C(=O)N[C@@H]1C[C@H](N)[C@@H](O[C@H]2O[C@H](CN)[C@@H](O)[C@H](O)[C@H]2O)[C@H](O)[C@H]1O[C@H]1O[C@H](CO)[C@@H](O)[C@H](N)[C@H]1O [amikacin] | up to 24 hours | –
CN[C@H](CC(C)C)C(=O)N[C@H]1C(=O)N[C@@H](CC(N)=O)C(=O)N[C@H]2C(=O)N[C@H]3C(=O)N[C@H](C(=O)N[C@H](C(=O)O)c4cc(O)cc(O)c4-c4cc3ccc4O)[C@H](O)c3ccc(c(Cl)c3)Oc3cc2cc(c3O[C@@H]2O[C@H](CO)[C@@H](O)[C@H](O)[C@H]2O[C@H]2C[C@](C)(N)[C@H](O)[C@H](C)O2)Oc2ccc(cc2Cl)[C@H]1O [vancomycin] | – | up to 48 hours
